The values that follow come from patent publication US10973789B2, “Compositions and methods for treating skin conditions using light and polycarboxylic acids” (Johnson & Johnson Consumer Inc., priority 2017, dated 2021).

The test has as its system Propionibacterium acnes ATCC 6919.

Where two headings read alike, the source gives them in different places.

Protocol: The sample is then recovered onto agar and incubated 5-7 days until clear colonies are visible. […] The anti-P. acnes activity of various test treatments were compared. Anti-P. acnes activity was measured using the in vitro method described above. The test treatments comprised either 0.1 or 0.25 weight percent of succinic acid in reinforced clostridial media with and without the administration of 440 nm blue light. […] Non-control test samples were adjusted to a pH of 4.5.

On to `O=C(O)CCC(=O)O` [Succinic Acid, Succinic acid (butanedioic acid)], for which the “antimicrobial activity of the combination relative to the expected additive reduction” value is recorded as “about 12,000 times” (0.1% succinic acid + light: 6.7 log reduction vs additive 2.6 log reduction) and “about 3 times” (0.25% succinic acid + light: 6.7 log reduction vs additive 6.2 log reduction). Besides, the “reduction of P. acnes bacterial count” value by setting is: (0.1% succinic acid combined with light) 6.7 logs; (0.1% succinic acid, no light, compared to untreated control solution) 2 logs; (0.25% succinic acid combined with light) 6.7 logs; (0.25% succinic acid, no light, compared to untreated control solution) 5.6 logs. In addition, the “Log 10 reduction vs Control Solution” value reads like this: (0.1% succinic acid in reinforced clostridial media, pH 4.5, no light) 2.0 Log 10; (0.1% succinic acid, pH 4.5, + 440 nm blue light) greater than 6.7 Log 10; (0.25% succinic acid in reinforced clostridial media, pH 4.5, no light) 5.6 Log 10; (0.25% succinic acid, pH 4.5, + 440 nm blue light) greater than 6.7 Log 10.
